# Measured values as given in publication PMC8617031, “Development of a BCL-xL and BCL-2 dual degrader with improved anti-leukemic activity,” (Nature Communications, 2021).
# “And” between values parts separate entries of the source, which are not always exact repeats. Identical values can stand only once.
# Columns and labels:
# [1] = tested on: BCL-2/PROTAC/VCB ternary complex (HiBit-BCL-2, HaloTag-VHL); assay: NanoBRET intracellular ternary complex formation in 293T cells, BCL-2; format: cell-based, human; details: for nanoBRET ratio (610/450, background-subtracted), Ave, Bcl-2: Ave of Read2 and Read3; for nanoBRET ratio (610/450, background-subtracted), Ave, Bcl-2 / nanoBRET ratio (610/450, background-subtracted), Read2, Bcl-2 / nanoBRET ratio (610/450, background-subtracted), Read3, Bcl-2: triplicate wells
# How it was run: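 293T cells were transfected with HiBit-BCL-xL or HiBit-BCL-2 plus HaloTag-VHL and incubated overnight with or without HaloTag NanoBRET 618 ligand in 4% FBS Opti-MEM. Serially diluted compounds were applied for 6 h at 37 °C. mBRET ratio from donor emission (450/50 nm) and acceptor emission (610 nm longpass) after Nano-Glo substrate.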
# [2] = biological target: T1, BCL-2 (Homo sapiens, UniProt P10415); assay: BCL-2 degradation by immunoblot in Kasumi-1 cells; format: cell-based; details: Fig. 7b; for BCL-2 level, bar graph (0 = 100): two replicate columns
# T1 construct: endogenous in cells
# T1 sequence (P10415 whole entry): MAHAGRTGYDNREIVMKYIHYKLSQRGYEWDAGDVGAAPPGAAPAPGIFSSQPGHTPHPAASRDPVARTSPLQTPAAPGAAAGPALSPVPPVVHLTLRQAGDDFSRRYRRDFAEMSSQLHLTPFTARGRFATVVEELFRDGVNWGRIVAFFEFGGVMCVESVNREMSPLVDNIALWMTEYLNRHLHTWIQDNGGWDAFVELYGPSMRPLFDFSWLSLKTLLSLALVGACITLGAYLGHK
# Description: Tubulin was used as an equal loading control. […] For the viability assays, the data are presented as mean ± s.d. from three replicate cell cultures in a representative experiment. Similar results were also observed in two additional independent experiments. d Representative immunoblot analyses of Kasumi-1 cells 16 h after treatment as indicated. […] Data are representative of two independent experiments. The dotted line represents the value from DMSO-treated cells. Source data are provided as a Source data file.
# Cells were collected, washed once with ice-cold phosphate-buffered saline, pH 7.2 (PBS, cat. no. 20012027; Thermo Fisher Scientific) and lysed in RIPA lysis buffer (Cat. No. BP-115DG, Boston Bio Products, Ashland, MA, USA) supplemented with protease and phosphatase inhibitor cocktails (Cat. No. PPC1010, Sigma-Aldrich, St. Louis, MO, USA) through sonication. The samples were centrifuged at 14,000 r.p.m. for 5 min and the supernatants were transferred into a new tube. The protein concentration in the supernatants was determined using the Pierce BCA protein Assay kit (cat. no. 23225, Thermo Fisher Scientific). The protein concentration was normalized, and the samples were reduced in 4× Laemmli’s SDS-sample buffer (cat. no. BP-110R, Boston Bio Products) and denatured at 95 °C for 5 min. An equal amount of protein samples (20–40 μg per lane) were resolved using precast 4–20% Tris-glycine gels (Mini-PROTEAN TGX, cat. no. 456–1094, Bio-Rad), and resolved proteins were transferred onto 0.2-µm pore size polyvinylidene difluoride (PVDF) blotting membranes (cat. no. LC2002, Thermo Fisher Scientific) using mini trans-blot electrophoretic transfer cell (Bio-Rad). The membranes were blocked with non-fat dry milk (5% wt/vol) in 1× Tris-buffered saline-Tween-20 (TBST, cat. no. J77500, Affymetrix) for 1 h at room temperature, and were subsequently probed with primary antibodies at a predetermined optimal concentration in non-fat dry milk (5% wt/vol in TBST) overnight at 4 °C. The membranes were washed three times (5 min each) in TBST and then incubated with horse radish peroxidase (HRP)-conjugated secondary antibodies for 1 h at room temperature. Following sufficient washing with TBST, the membranes were exposed with chemiluminescent HRP substrate (cat. no. WBKLS0500, MilliporeSigma), and the signal was detected using the ChemiDoc MP Imaging System (Bio-Rad) and quantified using the ImageJ (v1.53a) software from NIH.
Compound,"nanoBRET ratio (610/450, background-subtracted), Ave, Bcl-2 ([1]; 0.004 uM)","nanoBRET ratio (610/450, background-subtracted), Read2, Bcl-2 ([1]; 0.004 uM)","nanoBRET ratio (610/450, background-subtracted), Read3, Bcl-2 ([1]; 0.004 uM)","nanoBRET ratio (610/450, background-subtracted), Ave, Bcl-2 ([1]; 0.012 uM)","nanoBRET ratio (610/450, background-subtracted), Read2, Bcl-2 ([1]; 0.012 uM)","nanoBRET ratio (610/450, background-subtracted), Read3, Bcl-2 ([1]; 0.012 uM)","nanoBRET ratio (610/450, background-subtracted), Ave, Bcl-2 ([1]; 0.111 uM)","nanoBRET ratio (610/450, background-subtracted), Read2, Bcl-2 ([1]; 0.111 uM)","nanoBRET ratio (610/450, background-subtracted), Read3, Bcl-2 ([1]; 0.111 uM)","nanoBRET ratio (610/450, background-subtracted), Ave, Bcl-2 ([1]; 0.333 uM)","nanoBRET ratio (610/450, background-subtracted), Read2, Bcl-2 ([1]; 0.333 uM)","nanoBRET ratio (610/450, background-subtracted), Read3, Bcl-2 ([1]; 0.333 uM)","nanoBRET ratio (610/450, background-subtracted), Ave, Bcl-2 ([1]; 1 uM)","nanoBRET ratio (610/450, background-subtracted), Read2, Bcl-2 ([1]; 1 uM)","nanoBRET ratio (610/450, background-subtracted), Read3, Bcl-2 ([1]; 1 uM)","nanoBRET ratio (610/450, background-subtracted), Ave, Bcl-2 ([1]; 3 uM)","nanoBRET ratio (610/450, background-subtracted), Read2, Bcl-2 ([1]; 3 uM)","nanoBRET ratio (610/450, background-subtracted), Read3, Bcl-2 ([1]; 3 uM)","BCL-2 level, bar graph (0 = 100) ([2]; concentration 0.01)","BCL-2 level, bar graph (0 = 100) ([2]; concentration 0.03)",other results
Cc1ncsc1-c1ccc([C@H](C)NC(=O)[C@@H]2C[C@@H](O)CN2C(=O)[C@@H](NC(=O)CCCCCCC(=O)N2CCN(C[C@@]3(C)CCC(c4ccc(Cl)cc4)=C(CN4CCN(c5ccc(C(=O)NS(=O)(=O)c6ccc(N[C@H](CCN7CCOCC7)CSc7ccccc7)c(S(=O)(=O)C(F)(F)F)c6)cc5)CC4)C3)CC2)C(C)(C)C)cc1 [753a],3.986 and 4.005 and 4.171,4.213 and 3.959 and 4.208,3.759 and 4.052 and 4.1349,3.935 and 4.221 and 4.234,4.374 and 4.4563 and 4.486,3.4969 and 3.9866 and 3.982,5.182 and 5.692 and 5.227,5.4197 and 6.174 and 5.638,4.944 and 5.21 and 4.816,5.936 and 5.165 and 5.723,6.144 and 5.244 and 5.817,5.728 and 5.085 and 5.6284,4.911 and 5.007 and 4.802,5.2892 and 5.222 and 5.13,4.533 and 4.7919 and 4.4737,5.075 and 4.7947 and 5.072,5.352 and 5.171 and 5.538,4.798 and 4.419 and 4.6068,,,
Cc1ncsc1-c1ccc([C@H](C)NC(=O)[C@@H]2C[C@@H](O)CN2C(=O)[C@@H](NC(=O)CCCCCCC(=O)N2CCN(C[C@]3(C)CCC(c4ccc(Cl)cc4)=C(CN4CCN(c5ccc(C(=O)NS(=O)(=O)c6ccc(N[C@H](CCN7CCOCC7)CSc7ccccc7)c(S(=O)(=O)C(F)(F)F)c6)cc5)CC4)C3)CC2)C(C)(C)C)cc1 [753b],4.377 and 3.959 and 4.565,4.539 and 4.475 and 4.818,4.215 and 3.442 and 4.311,5.266 and 5.391 and 5.383,5.627 and 5.5043 and 5.572,4.906 and 5.278 and 5.194,8.153 and 8.77 and 8.375,8.4844 and 9.173 and 8.444,7.821 and 8.367 and 8.306,10.2466 and 9.352 and 9.108,10.4847 and 9.4698 and 9.325,10.0085 and 9.234 and 8.89,9.221 and 9.808 and 9.597,8.91 and 9.99 and 9.879,9.531 and 9.627 and 9.314,10.0388 and 9.727 and 10.2545,10.3731 and 9.71 and 10.9724,9.704 and 9.745 and 9.537,66 and 60,44 and 48,"intracellular ternary complex formation with BCL-2 (in words) ([1]; NanoBRET, 293T cells, 6 h): much higher activity to induce the ternary complex formation with both BCL-xL and BCL-2 relative to 753a; BCL-2 degradation in Kasumi-1 cells (in words) ([2]; Kasumi-1 cells, 16 h): could also degrade BCL-2; BCL-2 level, bar graph (0 = 100) ([2]; concentration 0.1): 36 and 21; BCL-2 level, bar graph (0 = 100) ([2]; concentration 0.3): 32 and 26; BCL-2 level, bar graph (0 = 100) ([2]; concentration 1): 36 and 25"
Cc1ncsc1-c1ccc([C@H](C)NC(=O)[C@@H]2C[C@@H](O)CN2C(=O)[C@@H](NC(=O)CCCCCC(=O)N2CCN(CC[C@H](CSc3ccccc3)Nc3ccc(S(=O)(=O)NC(=O)c4ccc(N5CCN(CC6=C(c7ccc(Cl)cc7)CCC(C)(C)C6)CC5)cc4)cc3S(=O)(=O)C(F)(F)F)CC2)C(C)(C)C)cc1 [DT2216],,,,,,,,,,,,,,,,,,,96 and 105,90 and 102,"BCL-2 level, bar graph (0 = 100) ([2]; concentration 0.1): 92 and 98; BCL-2 level, bar graph (0 = 100) ([2]; concentration 0.3): 91 and 99; BCL-2 level, bar graph (0 = 100) ([2]; concentration 1): 80 and 89"
